Five compounds from ChEMBL document CHEMBL3813604, “Two pairs of farnesyl phenolic enantiomers as natural nitric oxide inhibitors from Ganoderma sinense” (Bioorg Med Chem Lett, 2016) can be followed below.

Molecules are shown by their SMILES.

In general, IC50 refers to the concentration at which inhibition is half-maximal.

This assay deals with RAW264.7. The experiment in a line: Antiinflammatory activity in mouse RAW264.7 cells assessed as inhibition of LPS-induced nitric oxide production after 24 hrs by Griess assay. It is filed as functional, cell-based. Conditions: RAW264.7, 24 h.
On to `C/C(=C\CC/C(=C/CCC1=C[C@@H](c2cc(O)ccc2O)OC1=O)CO)COC(=O)/C=C/c1ccc(O)cc1`, for which the IC50 came out at 1.15 µM.

Take `CO[C@@]1(c2cc(O)cc(O)c2)C=C(CC/C=C(\CO)CC/C=C(\C)COC(=O)/C=C/c2ccc(O)cc2)C(=O)O1`: the 50% inhibitory concentration (IC50) was 1.51 µM.

On to `C/C(=C\CC/C(=C/CCC1=C[C@H](c2cc(O)ccc2O)OC1=O)CO)COC(=O)/C=C/c1ccc(O)cc1`, for which the IC50 worked out at 1.42 µM.

As to `CO[C@]1(c2cc(O)cc(O)c2)C=C(CC/C=C(\CO)CC/C=C(\C)COC(=O)/C=C/c2ccc(O)cc2)C(=O)O1`, the IC50 was 2.26 µM.

For `C[C@]12CCC(=O)C=C1CC[C@@H]1[C@@H]2[C@@H](O)C[C@@]2(C)[C@H]1CC[C@]2(O)C(=O)CO` [HYDROCORTISONE], the IC50 was 58.8 µM.
